From ChEMBL document CHEMBL5291721, “A preclinical secondary pharmacology resource illuminates target-adverse drug reaction associations of marketed drugs” (Nat Commun, 2023)

Assays:
[1] = molecular target: T1, Muscarinic acetylcholine receptor M1 (Homo sapiens, UniProt P11229); type: functional
T1 sequence (P11229 whole entry): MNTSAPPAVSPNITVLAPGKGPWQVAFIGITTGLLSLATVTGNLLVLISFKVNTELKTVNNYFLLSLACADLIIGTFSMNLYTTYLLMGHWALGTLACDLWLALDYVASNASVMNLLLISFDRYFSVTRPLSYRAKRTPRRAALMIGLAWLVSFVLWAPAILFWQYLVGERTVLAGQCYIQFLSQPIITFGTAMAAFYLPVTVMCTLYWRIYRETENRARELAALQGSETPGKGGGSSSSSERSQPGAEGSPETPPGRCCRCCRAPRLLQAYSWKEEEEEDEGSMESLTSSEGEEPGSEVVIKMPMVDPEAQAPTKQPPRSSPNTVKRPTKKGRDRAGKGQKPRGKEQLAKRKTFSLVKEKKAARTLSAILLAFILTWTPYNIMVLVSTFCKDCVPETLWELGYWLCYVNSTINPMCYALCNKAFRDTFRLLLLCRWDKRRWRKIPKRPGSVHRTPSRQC

[2] = molecular target: Kappa-type opioid receptor (Homo sapiens, UniProt P41145)
Sequence of Kappa-type opioid receptor (P41145 whole entry): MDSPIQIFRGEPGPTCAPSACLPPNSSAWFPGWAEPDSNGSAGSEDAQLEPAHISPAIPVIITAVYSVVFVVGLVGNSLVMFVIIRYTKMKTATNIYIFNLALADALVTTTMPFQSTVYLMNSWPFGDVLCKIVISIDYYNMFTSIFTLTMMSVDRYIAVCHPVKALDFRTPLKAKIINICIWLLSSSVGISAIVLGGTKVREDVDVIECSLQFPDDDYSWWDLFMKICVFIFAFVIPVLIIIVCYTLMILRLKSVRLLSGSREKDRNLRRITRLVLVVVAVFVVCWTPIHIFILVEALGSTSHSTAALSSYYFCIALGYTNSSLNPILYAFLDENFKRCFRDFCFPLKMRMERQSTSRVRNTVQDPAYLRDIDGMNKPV

[3] = molecular target: Voltage-gated inwardly rectifying potassium channel KCNH2 (Homo sapiens, UniProt Q12809); type: functional; details: read-out: AC50
Sequence of Voltage-gated inwardly rectifying potassium channel KCNH2 (Q12809 whole entry): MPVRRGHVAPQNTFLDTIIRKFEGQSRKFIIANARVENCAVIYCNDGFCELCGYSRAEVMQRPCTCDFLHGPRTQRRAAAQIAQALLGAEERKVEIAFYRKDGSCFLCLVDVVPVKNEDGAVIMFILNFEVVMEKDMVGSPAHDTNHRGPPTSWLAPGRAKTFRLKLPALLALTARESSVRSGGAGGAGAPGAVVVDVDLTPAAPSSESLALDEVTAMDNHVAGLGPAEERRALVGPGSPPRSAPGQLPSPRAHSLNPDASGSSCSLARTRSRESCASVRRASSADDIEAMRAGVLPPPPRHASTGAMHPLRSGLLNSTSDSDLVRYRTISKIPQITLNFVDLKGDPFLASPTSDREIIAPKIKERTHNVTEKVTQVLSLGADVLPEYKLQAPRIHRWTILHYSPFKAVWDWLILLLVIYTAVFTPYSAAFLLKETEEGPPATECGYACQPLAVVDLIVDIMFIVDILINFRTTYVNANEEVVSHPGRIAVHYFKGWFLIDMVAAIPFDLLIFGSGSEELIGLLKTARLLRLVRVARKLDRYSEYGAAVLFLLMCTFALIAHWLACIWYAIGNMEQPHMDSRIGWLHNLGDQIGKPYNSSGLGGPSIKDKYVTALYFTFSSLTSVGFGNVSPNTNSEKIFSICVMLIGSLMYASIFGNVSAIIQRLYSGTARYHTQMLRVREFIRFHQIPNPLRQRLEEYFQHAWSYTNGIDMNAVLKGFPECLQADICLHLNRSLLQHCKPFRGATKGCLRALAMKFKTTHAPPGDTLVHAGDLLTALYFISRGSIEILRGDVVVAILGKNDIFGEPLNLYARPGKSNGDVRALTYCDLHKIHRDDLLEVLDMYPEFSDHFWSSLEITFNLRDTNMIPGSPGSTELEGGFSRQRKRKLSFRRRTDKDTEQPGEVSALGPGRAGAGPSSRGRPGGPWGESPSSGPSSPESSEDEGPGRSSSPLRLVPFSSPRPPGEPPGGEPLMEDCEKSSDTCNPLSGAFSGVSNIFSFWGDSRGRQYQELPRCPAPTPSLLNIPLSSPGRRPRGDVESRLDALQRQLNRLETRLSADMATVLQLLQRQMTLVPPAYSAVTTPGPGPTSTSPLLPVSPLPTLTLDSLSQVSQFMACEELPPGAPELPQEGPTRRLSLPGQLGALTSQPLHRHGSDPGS

[4] = molecular target: T2, Progesterone receptor (Homo sapiens, UniProt P06401); type: functional
T2 sequence (P06401 whole entry): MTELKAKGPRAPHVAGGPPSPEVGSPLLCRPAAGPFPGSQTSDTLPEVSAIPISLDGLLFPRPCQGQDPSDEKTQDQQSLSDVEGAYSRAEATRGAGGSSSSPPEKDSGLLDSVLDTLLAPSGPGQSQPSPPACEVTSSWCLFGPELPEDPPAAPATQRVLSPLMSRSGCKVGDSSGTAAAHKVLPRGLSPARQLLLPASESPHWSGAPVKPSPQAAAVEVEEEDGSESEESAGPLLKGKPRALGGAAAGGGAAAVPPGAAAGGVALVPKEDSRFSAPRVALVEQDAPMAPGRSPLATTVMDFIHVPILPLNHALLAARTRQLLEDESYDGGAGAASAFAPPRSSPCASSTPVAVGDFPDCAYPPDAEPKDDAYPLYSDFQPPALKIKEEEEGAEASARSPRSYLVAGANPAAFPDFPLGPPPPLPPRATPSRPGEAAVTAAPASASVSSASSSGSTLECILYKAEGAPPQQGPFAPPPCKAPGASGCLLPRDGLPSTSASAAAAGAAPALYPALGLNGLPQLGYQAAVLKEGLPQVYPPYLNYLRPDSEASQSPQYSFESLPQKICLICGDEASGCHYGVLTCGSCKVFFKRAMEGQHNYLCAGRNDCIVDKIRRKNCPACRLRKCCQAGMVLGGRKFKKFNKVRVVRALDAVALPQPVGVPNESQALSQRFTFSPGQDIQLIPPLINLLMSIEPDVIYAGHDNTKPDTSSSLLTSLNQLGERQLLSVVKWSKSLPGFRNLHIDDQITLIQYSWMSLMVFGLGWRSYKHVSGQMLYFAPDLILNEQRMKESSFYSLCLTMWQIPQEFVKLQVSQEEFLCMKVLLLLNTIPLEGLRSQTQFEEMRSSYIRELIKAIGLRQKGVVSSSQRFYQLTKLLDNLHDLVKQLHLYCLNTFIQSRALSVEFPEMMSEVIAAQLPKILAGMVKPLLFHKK

[5] = molecular target: T3, Thromboxane A2 receptor (Homo sapiens, UniProt P21731)
T3 sequence (P21731 whole entry): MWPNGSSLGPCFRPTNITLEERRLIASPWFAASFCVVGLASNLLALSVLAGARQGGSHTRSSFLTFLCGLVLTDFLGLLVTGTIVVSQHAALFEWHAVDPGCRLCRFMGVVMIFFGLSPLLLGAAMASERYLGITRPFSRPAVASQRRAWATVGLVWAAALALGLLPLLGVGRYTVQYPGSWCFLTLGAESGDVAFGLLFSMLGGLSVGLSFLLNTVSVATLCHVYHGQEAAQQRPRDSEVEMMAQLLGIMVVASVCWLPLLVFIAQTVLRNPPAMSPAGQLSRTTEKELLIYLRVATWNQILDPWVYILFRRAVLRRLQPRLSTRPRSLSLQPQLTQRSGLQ

[6] = molecular target: T4, Alpha-2A adrenergic receptor (Homo sapiens, UniProt P08913); type: functional, cell-based
T4 sequence (P08913 whole entry): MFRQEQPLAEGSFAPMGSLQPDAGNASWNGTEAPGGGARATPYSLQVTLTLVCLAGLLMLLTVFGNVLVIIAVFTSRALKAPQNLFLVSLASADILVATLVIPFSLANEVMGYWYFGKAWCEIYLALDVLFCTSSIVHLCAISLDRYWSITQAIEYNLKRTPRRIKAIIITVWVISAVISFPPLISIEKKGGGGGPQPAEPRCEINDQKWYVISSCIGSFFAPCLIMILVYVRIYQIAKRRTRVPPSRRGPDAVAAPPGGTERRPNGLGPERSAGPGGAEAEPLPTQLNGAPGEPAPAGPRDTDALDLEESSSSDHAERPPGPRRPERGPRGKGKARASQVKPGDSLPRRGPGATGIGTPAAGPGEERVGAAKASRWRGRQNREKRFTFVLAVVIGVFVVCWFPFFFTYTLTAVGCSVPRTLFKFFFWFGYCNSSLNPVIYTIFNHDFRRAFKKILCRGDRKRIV

[7] = molecular target: Vasopressin V2 receptor (Homo sapiens, UniProt P30518)
Sequence of Vasopressin V2 receptor (P30518 whole entry): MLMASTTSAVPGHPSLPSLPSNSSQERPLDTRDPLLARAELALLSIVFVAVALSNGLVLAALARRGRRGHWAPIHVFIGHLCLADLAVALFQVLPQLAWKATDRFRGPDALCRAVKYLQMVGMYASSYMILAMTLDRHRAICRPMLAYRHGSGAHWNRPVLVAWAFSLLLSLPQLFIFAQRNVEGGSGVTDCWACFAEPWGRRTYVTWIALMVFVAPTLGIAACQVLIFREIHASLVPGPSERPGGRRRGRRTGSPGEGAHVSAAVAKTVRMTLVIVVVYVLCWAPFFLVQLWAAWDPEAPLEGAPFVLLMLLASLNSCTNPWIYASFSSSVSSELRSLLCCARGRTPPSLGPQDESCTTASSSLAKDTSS

[8] = molecular target: T5, Alpha-2B adrenergic receptor (Homo sapiens, UniProt P18089)
T5 sequence (P18089 whole entry): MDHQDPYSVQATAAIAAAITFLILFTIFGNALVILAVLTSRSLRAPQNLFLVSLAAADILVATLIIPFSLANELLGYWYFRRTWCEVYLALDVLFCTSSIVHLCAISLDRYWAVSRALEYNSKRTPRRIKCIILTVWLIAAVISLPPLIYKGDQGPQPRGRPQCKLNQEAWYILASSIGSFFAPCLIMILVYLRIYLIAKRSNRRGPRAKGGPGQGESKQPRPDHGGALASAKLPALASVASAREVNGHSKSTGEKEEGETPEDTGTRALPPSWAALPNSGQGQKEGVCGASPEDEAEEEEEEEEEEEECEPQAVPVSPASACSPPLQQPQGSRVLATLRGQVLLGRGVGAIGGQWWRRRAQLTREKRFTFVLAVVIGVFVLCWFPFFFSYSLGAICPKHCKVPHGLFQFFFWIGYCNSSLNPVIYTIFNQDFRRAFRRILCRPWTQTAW

[9] = molecular target: Gamma-aminobutyric acid receptor subunit alpha-1 (Rattus norvegicus, UniProt P62813)
Sequence of Gamma-aminobutyric acid receptor subunit alpha-1 (P62813 whole entry): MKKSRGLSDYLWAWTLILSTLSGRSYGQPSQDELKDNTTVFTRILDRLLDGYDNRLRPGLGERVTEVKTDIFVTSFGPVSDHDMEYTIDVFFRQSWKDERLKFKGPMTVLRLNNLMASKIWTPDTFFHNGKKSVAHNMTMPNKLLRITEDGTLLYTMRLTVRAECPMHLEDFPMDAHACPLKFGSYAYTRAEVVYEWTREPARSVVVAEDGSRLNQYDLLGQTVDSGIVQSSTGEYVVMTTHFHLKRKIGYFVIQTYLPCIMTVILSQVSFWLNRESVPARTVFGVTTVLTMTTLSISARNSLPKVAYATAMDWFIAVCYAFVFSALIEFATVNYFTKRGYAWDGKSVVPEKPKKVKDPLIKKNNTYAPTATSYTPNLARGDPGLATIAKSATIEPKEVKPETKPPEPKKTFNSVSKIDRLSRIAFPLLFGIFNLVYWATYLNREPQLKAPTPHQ

[10] = molecular target: Cannabinoid receptor 1 (Homo sapiens, UniProt P21554); type: functional, cell-based
Sequence of Cannabinoid receptor 1 (P21554 whole entry): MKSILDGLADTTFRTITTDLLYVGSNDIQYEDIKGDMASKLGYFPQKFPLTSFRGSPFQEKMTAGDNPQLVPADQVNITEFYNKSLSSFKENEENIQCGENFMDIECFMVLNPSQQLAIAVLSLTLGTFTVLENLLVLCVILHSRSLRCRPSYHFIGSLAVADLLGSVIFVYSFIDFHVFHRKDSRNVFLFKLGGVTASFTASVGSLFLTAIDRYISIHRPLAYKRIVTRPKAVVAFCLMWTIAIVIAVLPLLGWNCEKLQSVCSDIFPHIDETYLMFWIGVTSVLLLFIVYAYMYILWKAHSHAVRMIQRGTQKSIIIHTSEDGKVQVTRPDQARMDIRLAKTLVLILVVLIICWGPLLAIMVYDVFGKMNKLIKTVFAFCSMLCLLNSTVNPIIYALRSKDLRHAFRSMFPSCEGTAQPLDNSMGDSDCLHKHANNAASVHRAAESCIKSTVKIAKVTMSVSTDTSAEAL
Note: assay procedure not described here.

AC50 [1]: > 30 µM
AC50 [2]: > 30 µM
AC50 [4]: > 30 µM
AC50 [5]: > 30 µM
AC50 [6]: > 30 µM
AC50 [7]: > 30 µM
AC50 [8]: > 30 µM
AC50 [9]: > 30 µM
AC50 [10]: > 30 µM
Compound: CCCCOC(=O)C(=O)Nc1cccc(-c2nnn[nH]2)c1 [TAZANOLAST]
AC50 [3]: > 30 µM
